Experimental data: paper PMC8998618, “A Pharmacokinetic and Metabolism Study of the TRPC6 Inhibitor SH045 in Mice by LC-MS/MS” (International Journal of Molecular Sciences, 2022)

Tests used:
[1] = NADPH-dependent microsomal conversion, Michaelis-Menten kinetics (HLM); type: in vitro ADME, human; conditions: HLM 0.5 mg/mL protein, SH045 0.5 to 100 µM, Lineweaver-Burk
Protocol: For determination of vmax and Michaelis-Menten constant Km of the NADPH-dependent microsomal depletion of SH045, incubations in MLM and HLM were performed. Testosterone instead of SH045 was used as positive control (Supplementary Materials SM6).
Negative controls were obtained by omission of respective components. The overall velocity (v) of degradation was calculated from altered SH045 concentration (∆c) obtained from reduction peak area ratio of SH045 as: v = ∆c/incubation time × concentration of enzyme (nmol/min × mg). Mean maximum rate vmax and Km were calculated using Lineweaver-Burk transformation. […]
(§1) The tissue binding of SH045 was analyzed exemplarily in lung, liver and kidney homogenate using ultrafiltration [5]. […] 20 µL of the mixture and the filtrate were analyzed for SH045. […]
(§2) Testosterone (10 µM in ACN/DPBS 2/3, v/v) instead of SH045 was used as positive control and analyzed by an appropriate HPLC method with UV detection.
(§3) Negative controls contained either no NADPH, no MLM or HLM or none of them. The overall velocity (v) of degradation was calculated from altered SH045 concentration (∆c) obtained from reduction peak area ratio of SH045 as: v = ∆c / incubation time × concentration of enzyme × volume (nmol/ min × mg). Mean maximum rate vmax and Michaelis-Menten constant Km were calculated using Lineweaver-Burk transformation. […]

[2] = test system: cytochrome P450 isoenzymes; experiment: cytochrome P450 isoenzyme inhibition with isoform-specific inhibitors in liver microsomes; type: in vitro ADME, mouse and human; conditions: MLM and HLM, 2 µM SH045, isoform-specific inhibitors
Protocol: To determine possible metabolizing pathways of SH045 in MLM and HLM, an in vitro inhibition approach was performed with CYP-isoform specific inhibitors. […]
homogenates, and shaken vigorousl y for 5 min. 40 µL urine was mixed with 4 µL of IS and extracted with 156 µL pure […]
All microsome incubations were stopped with 1 mL ice -cold ACN containing 5 µg/mL IS, vortexed for 1 min and cooled at -20 °C for 10 min.
After centrifugation of mixtures from tissue or microsomal incubations for 15 min at 4 °C, the supernatants were filtered through a 0.2 -µm-pore-size syringe filter and stored in the autosampler at 6 °C until analysis by LC-MS/MS as […]
SM5 Tissue binding of SH045
as §1, §2
as §3, with “mg).” for “mg). Mean maximum rate vmax and Michaelis-Menten constant Km were calculated using Lineweaver-Burk transformation.”

TRPC6 = test system: TRPC6; design: method as in PMID 29522264; conditions: in vitro; cited from earlier work

vmax [1]: 0.8 ± 0.1 nmol/min/mg | Km at 10 min ([1]; human, human liver microsomes): 4.1 ± 0.8 µM | cytochrome P450 isoenzymes metabolizing SH045 [2]: substrate of CYP3A4 and CYP2A6
Compound: C=C[C@@](C)(O)CC[C@H]1C(=C)C[C@H](OC(=O)NC)[C@H]2C(C)(C)CCC[C@]12C [SH045, (1S,4S,4aR,8aS)-4-((S)-3-Hydroxy-3-methylpent-4-en-1-yl)-4a,8,8-trimethyl-3-methylenedecahydronaphthalen-1-yl methylcarbamate]
IC50 (TRPC6): 5.8 nM
